Test results reported in patent publication US8975417B2, “Pyrazolopyrrolidine derivatives and their use in the treatment of disease” (Novartis AG, priority 2013, dated 2015).

Legend:
Conditions in all cases: biochemical
His-Brd4(44-477) = His-Brd4(44-477) (Homo sapiens (Human), UniProt O60885); assay: TR-FRET in-vitro binding assay for BRD4
Procedure: (§1) TR-FRET In-Vitro Binding Assays for BRD2, BRD3, and BRD4:
(§2) All assays were performed in 384-well microtiter plates. Each assay plate contained 8-point serial dilutions for 40 test compounds, plus 16 high- and 16 low controls. Liquid handling and incubation steps were done on an Innovadyne Nanodrop Express equipped with a robotic arm (Thermo CatX, Perkin Elmer/Caliper Twister II) and an incubator (Liconic STX40, Thermo Cytomat 2C450). The assay plates were prepared by addition of 50 nl per well of compound solution in 90% DMSO HummingBird nanodispenser (Zinsser Analytic). The assay was started by stepwise addition of 4.5 μL per well of bromo domain protein (50 mM HEPES, pH 7.5, 0.005% Tween20, 0.1% BSA, 50 mM NaCl, 45 nM His-Brd2(60-472) or 45 nM His-Brd3(20-477) or 45 nM His-Brd4(44-477) all proteins produced in-house) and 4.5 μL per well of peptide solution (50 mM HEPES, pH 7.5, 0.005% Tween20, 0.1% BSA, 50 mM NaCl, 60 nM acetyl-histone H4 (AcK 5, 8, 12, 16) (Biosyntan GmbH)). Reactions were incubated at 30° C. for 35 minutes. Subsequently 4.5 μL per well detection mix (50 mM HEPES, pH 7.5, 0.005% Tween20, 0.1% BSA, 50 mM NaCl, 3 nM Eu-labeled anti-His6 antibody, 21 nM streptavidin-allophycocyanin) were added. After minutes incubation at 30° C., plates were measured in a Perkin Elmer EnVision multilabel reader.
(§3) Test compounds were dissolved in DMSO (10 mM) and transferred into 1.4 mL flat bottom or V-shaped Matrix tubes carrying a unique 2D matrix. The stock solutions were stored at […] if not used immediately. For the test procedure the vials were defrosted and identified by a scanner whereby a working sheet was generated that guided the subsequent working steps. Compound dilutions were made in 96 well plates. This format enabled the assay of maximally […] at 8 concentrations (single points) including 4 reference compounds, if desired (known BET inhibitors from the prior art, for this and other assays of the type disclosed herein). The dilution protocol included the production of “pre-dilution plates”, “master plates” and “assay plates”.
(§4) Polypropylene 96-well plates were used as pre-dilution plates. […] All dilution steps were done on a HamiltonSTAR robot.
(§5) 30 μL of individual compound dilutions including standard compound and controls of the 4 “pre-dilution plates” were transferred into a 384-well “master plate” including the following concentrations 10000, […], 1000, 300, 100, 30, 10 and 3 μM, respectively in 90% of DMSO.
(§6) Identical “assay plates” were then prepared by pipetting 50 nL each of compound dilutions of the “master plates” into 384-well “assay plates” by means of a HummingBird 384-channel dispenser. These plates were used directly for the assay which was performed in a total volume of 13.55 μL.

His-Brd2(60-472) = His-Brd2(60-472) (Homo sapiens (Human), UniProt P25440); assay: TR-FRET in-vitro binding assay for BRD2
Procedure: as §1, §2, §3, §4, §5, §6

His-Brd3(20-477) = His-Brd3(20-477) (Homo sapiens (Human), UniProt Q15059); assay: TR-FRET in-vitro binding assay for BRD3
Procedure: as §1, §2, §3, §4, §5, §6

[1] = biological target: His-CREBBP (1081-1197) bromodomain (Homo sapiens (Human), UniProt Q92793); assay: AlphaScreen in-vitro binding assay for CREBBP
Procedure: AlphaScreen In-Vitro Binding Assay for CREBBP
In order to assess bromodomain selectivity, we set up a binding assay using the bromodomain encoded by the CREBBP gene. […] Reactions were incubated at 30° C. for 35 minutes. Subsequently 4.5 μL per well detection mix (50 mM HEPES, pH 7.5, 0.005% Tween20, 0.02% BSA, 150 mM NaCl, 45 μg/ml Ni-chelate acceptor beads, 45 μg/mL streptavidin-donor beads) (Perkin Elmer)) were added. After 60 minutes incubation at room temperature, plates were measured in a Perkin Elmer EnVision multilabel reader. IC50 values were determined from percent inhibition values at different compound concentrations by non-linear regression analysis.
as §3, §4
These plates were used directly for the assay which was performed in a total volume of 13.55 μL.

His-Brd3(20-477), sequence (Q15059 20-477): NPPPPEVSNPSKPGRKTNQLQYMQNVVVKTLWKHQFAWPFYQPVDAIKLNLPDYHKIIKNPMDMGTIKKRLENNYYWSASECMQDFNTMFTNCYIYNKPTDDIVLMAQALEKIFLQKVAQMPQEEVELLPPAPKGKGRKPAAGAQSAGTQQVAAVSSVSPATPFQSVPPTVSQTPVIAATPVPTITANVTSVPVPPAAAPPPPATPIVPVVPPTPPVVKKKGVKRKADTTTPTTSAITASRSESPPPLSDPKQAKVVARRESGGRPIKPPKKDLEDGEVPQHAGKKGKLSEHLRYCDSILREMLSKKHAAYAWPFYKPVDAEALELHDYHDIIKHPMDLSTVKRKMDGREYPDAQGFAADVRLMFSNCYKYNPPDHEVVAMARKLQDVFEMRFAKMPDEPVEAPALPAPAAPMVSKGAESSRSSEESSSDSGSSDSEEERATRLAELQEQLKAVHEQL
His-Brd2(60-472), sequence (P25440 60-472): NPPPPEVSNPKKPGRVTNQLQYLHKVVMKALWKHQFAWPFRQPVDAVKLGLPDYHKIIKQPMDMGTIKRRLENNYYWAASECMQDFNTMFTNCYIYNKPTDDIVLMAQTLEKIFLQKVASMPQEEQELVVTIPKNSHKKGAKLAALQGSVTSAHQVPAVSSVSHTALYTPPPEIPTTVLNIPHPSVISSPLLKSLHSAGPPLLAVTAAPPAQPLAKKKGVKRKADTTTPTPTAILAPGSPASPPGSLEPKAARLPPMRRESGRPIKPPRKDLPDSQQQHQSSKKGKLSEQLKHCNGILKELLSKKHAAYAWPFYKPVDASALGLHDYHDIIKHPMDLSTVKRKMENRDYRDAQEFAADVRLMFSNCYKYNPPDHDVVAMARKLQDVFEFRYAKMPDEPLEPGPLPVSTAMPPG
His-CREBBP (1081-1197) bromodomain, sequence (Q92793 1081-1197): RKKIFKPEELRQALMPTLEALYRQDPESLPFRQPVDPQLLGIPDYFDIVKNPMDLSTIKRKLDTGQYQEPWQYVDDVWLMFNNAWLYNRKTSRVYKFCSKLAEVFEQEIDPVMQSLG

| Compound | IC50 (His-Brd4(44-477)) | IC50 (His-Brd2(60-472)) | IC50 (His-Brd3(20-477)) | IC50 [1] |
| --- | --- | --- | --- | --- |
| Cc1nn(C2CC2)c2c1C(c1ccc(Cl)cc1)N(c1cc(C)c(=O)n(C)c1)C2=O (racemic) [Example 23, 4-(4-chlorophenyl)-1-cyclopropyl-5-(1,5-dimethyl-6-oxo-1,6-dihydropyridin-3-yl)-3-methyl-4,5-dihydropyrrolo[3,4-c]pyrazol-6(1H)-one] | 66 nM |  |  |  |
| COc1ccc(Cn2nc3c(c2C)C(c2ccc(Cl)cc2)N(c2ccc(=O)n(C)c2)C3=O)cc1 (stereo not shown) [Example 1, 4-(4-chlorophenyl)-2-(4-methoxybenzyl)-3-methyl-5-(1-methyl-6-oxo-1,6-dihydropyridin-3-yl)-4,5-dihydropyrrolo[3,4-c]pyrazol-6(2H)-one] | 140 nM |  |  |  |
| Cc1[nH]nc2c1C(c1ccc(Cl)cc1)N(c1ccc(=O)n(C)c1)C2=O (stereo not shown) [Example 2, 4-(4-chlorophenyl)-3-methyl-5-(1-methyl-6-oxo-1,6-dihydropyridin-3-yl)-4,5-dihydropyrrolo[3,4-c]pyrazol-6(2H)-one] | 170 nM |  |  |  |
| Cc1nn(C)c2c1C(c1ccc(Cl)cc1)N(c1ccc(=O)n(C)c1)C2=O (stereo not shown) [Example 4, 4-(4-chlorophenyl)-1,3-dimethyl-5-(1-methyl-6-oxo-1,6-dihydropyridin-3-yl)-4,5-dihydropyrrolo[3,4-c]pyrazol-6(1H)-one] | 230 nM |  |  |  |
| Cn1cc(N2C(=O)c3n[nH]cc3C2c2ccc(Cl)cc2)cc(Cl)c1=O (stereo not shown) [Example 9, 5-(5-chloro-1-methyl-6-oxo-1,6-dihydropyridin-3-yl)-4-(4-chlorophenyl)-4,5-dihydropyrrolo[3,4-c]pyrazol-6(2H)-one] | 170 nM | 210 nM | 180 nM |  |
| Cn1cc2c(n1)C(=O)N(c1cc(Cl)c(=O)n(C)c1)C2c1ccc(Cl)cc1 (stereo not shown) [Example 10, 5-(5-chloro-1-methyl-6-oxo-1,6-dihydropyridin-3-yl)-4-(4-chlorophenyl)-2-methyl-4,5-dihydropyrrolo[3,4-c]pyrazol-6(2H)-one] | 150 nM | 150 nM | 130 nM |  |
| Cn1cc2c(n1)C(=O)N(c1cc(Cl)c(=O)n(C)c1)[C@@H]2c1ccc(Cl)cc1 [Example 11, (R)-5-(5-chloro-1-methyl-6-oxo-1,6-dihydropyridin-3-yl)-4-(4-chlorophenyl)-2-methyl-4,5-dihydropyrrolo[3,4-c]pyrazol-6(2H)-one] | 130 nM | 140 nM | 100 nM |  |
| Cn1cc2c(n1)C(=O)N(c1cc(Cl)c(=O)n(C)c1)[C@H]2c1ccc(Cl)cc1 [Example 12, (S)-5-(5-chloro-1-methyl-6-oxo-1,6-dihydropyridin-3-yl)-4-(4-chlorophenyl)-2-methyl-4,5-dihydropyrrolo[3,4-c]pyrazol-6(2H)-one] | > 37000 nM | > 37000 nM | > 37000 nM |  |
| Cn1cc2c(n1)C(=O)N(c1cc(F)c(=O)n(C)c1)C2c1ccc(Cl)cc1 (stereo not shown) [Example 14, 4-(4-chlorophenyl)-5-(5-fluoro-1-methyl-6-oxo-1,6-dihydropyridin-3-yl)-2-methyl-4,5-dihydropyrrolo[3,4-c]pyrazol-6(2H)-one] | 460 nM |  |  |  |
| Cc1c2c(nn1C)C(=O)N(c1ccc3nnc(C)n3c1)C2c1ccc(Cl)cc1 (stereo not shown) [Example 25, 4-(4-chlorophenyl)-2,3-dimethyl-5-(3-methyl-[1,2,4]triazolo[4,3-a]pyridin-6-yl)-4,5-dihydropyrrolo[3,4-c]pyrazol-6(2H)-one] | 260 nM | 270 nM | 250 nM |  |
| Cc1c2c(nn1C)C(=O)N(c1ccc(=O)n(C)n1)C2c1ccc(Cl)cc1 (stereo not shown) [Example 32, 4-(4-chlorophenyl)-2,3-dimethyl-5-(1-methyl-6-oxo-1,6-dihydropyridazin-3-yl)-4,5-dihydropyrrolo[3,4-c]pyrazol-6(2H)-one] | 660 nM | 1200 nM | 890 nM |  |
| Cc1cc(N2C(=O)c3nn(C4CC4)cc3C2c2ccc(Cl)cc2)cn(C)c1=O (stereo not shown) [Example 39, 4-(4-chlorophenyl)-2-cyclopropyl-5-(1,5-dimethyl-6-oxo-1,6-dihydropyridin-3-yl)-4,5-dihydropyrrolo[3,4-c]pyrazol-6(2H)-one] | 120 nM | 78 nM | 91 nM |  |
| Cc1nn(C2CC2)c2c1[C@H](c1ccc(Cl)cc1)N(c1cc(Cl)c(=O)n(C)c1)C2=O [Example 50, (S)-5-(5-chloro-1-methyl-6-oxo-1,6-dihydropyridin-3-yl)-4-(4-chlorophenyl)-1-cyclopropyl-3-methyl-4,5-dihydropyrrolo[3,4-c]pyrazol-6(1H)-one] |  | > 6700 nM |  | > 5100 nM |

Results, then the molecule that gave them:

| IC50 (His-Brd4(44-477)) | IC50 (His-Brd2(60-472)) | IC50 (His-Brd3(20-477)) | IC50 [1] | Compound |
| --- | --- | --- | --- | --- |
| 400 nM | 580 nM | 520 nM |  | Cc1c2c(nn1C)C(=O)N(c1ccc(=O)n(C)c1)C2c1ccc(Cl)cc1 (stereo not shown) [Example 3, 4-(4-chlorophenyl)-2,3-dimethyl-5-(1-methyl-6-oxo-1,6-dihydropyridin-3-yl)-4,5-dihydropyrrolo[3,4-c]pyrazol-6(2H)-one] |
| 31000 nM | 36000 nM | 27000 nM |  | Cc1c2c(nn1C)C(=O)N(c1cc(Cl)c(=O)n(C)c1)[C@H]2c1ccc(Cl)cc1 [Example 8, (S)-5-(5-chloro-1-methyl-6-oxo-1,6-dihydropyridin-3-yl)-4-(4-chlorophenyl)-2,3-dimethyl-4,5-dihydropyrrolo[3,4-c]pyrazol-6(2H)-one] |
| 130 nM | 180 nM | 150 nM |  | Cc1cc(N2C(=O)c3nn(C)cc3C2c2ccc(Cl)cc2)cn(C)c1=O (stereo not shown) [Example 13, 4-(4-chlorophenyl)-5-(1,5-dimethyl-6-oxo-1,6-dihydropyridin-3-yl)-2-methyl-4,5-dihydropyrrolo[3,4-c]pyrazol-6(2H)-one] |
|  |  | > 6700 nM |  | Cc1cc(N2C(=O)c3nn(C)cc3[C@@H]2c2ccc(Cl)cc2)cn(C)c1=O [Example 15, (S)-4-(4-chlorophenyl)-5-(1,5-dimethyl-6-oxo-1,6-dihydropyridin-3-yl)-2-methyl-4,5-dihydropyrrolo[3,4-c]pyrazol-6(2H)-one] |
|  | > 6700 nM |  |  | Cc1cc(N2C(=O)c3nn(C4CC4)c(C)c3[C@@H]2c2ccc(Cl)cc2)cn(C)c1=O [Example 22, (S)-4-(4-chlorophenyl)-2-cyclopropyl-5-(1,5-dimethyl-6-oxo-1,6-dihydropyridin-3-yl)-3-methyl-4,5-dihydropyrrolo[3,4-c]pyrazol-6(2H)-one] |
| 31000 nM | 28000 nM | 25000 nM |  | Cc1cc(N2C(=O)c3nn(C)c(C)c3[C@@H]2c2ccc(Cl)cc2)cn(C)c1=O [Example 29, (S)-4-(4-chlorophenyl)-5-(1,5-dimethyl-6-oxo-1,6-dihydropyridin-3-yl)-2,3-dimethyl-4,5-dihydropyrrolo[3,4-c]pyrazol-6(2H)-one] |
| 31 nM |  |  |  | Cc1cc(N2C(=O)c3nn(C)c(C)c3[C@H]2c2ccc(Cl)cc2)cn(C)c1=O [Example 30, (R)-4-(4-chlorophenyl)-5-(1,5-dimethyl-6-oxo-1,6-dihydropyridin-3-yl)-2,3-dimethyl-4,5-dihydropyrrolo[3,4-c]pyrazol-6(2H)-one] |
| 520 nM | 690 nM | 470 nM |  | Cc1c2c(nn1C)C(=O)N(c1cc(F)c(=O)n(C)c1)C2c1ccc(Cl)cc1 (stereo not shown) [Example 31, 4-(4-chlorophenyl)-5-(5-fluoro-1-methyl-6-oxo-1,6-dihydropyridin-3-yl)-2,3-dimethyl-4,5-dihydropyrrolo[3,4-c]pyrazol-6(2H)-one] |
